Assays:
RelA [1] = biological target: T1, RelA (Escherichia coli, UniProt P0AG20); test: 3H-GTP conversion to pppGpp by purified RelA with ribosomes, TLC; format: biochemical
T1 construct: untagged native full-length RelA
T1 sequence (P0AG20 1-744): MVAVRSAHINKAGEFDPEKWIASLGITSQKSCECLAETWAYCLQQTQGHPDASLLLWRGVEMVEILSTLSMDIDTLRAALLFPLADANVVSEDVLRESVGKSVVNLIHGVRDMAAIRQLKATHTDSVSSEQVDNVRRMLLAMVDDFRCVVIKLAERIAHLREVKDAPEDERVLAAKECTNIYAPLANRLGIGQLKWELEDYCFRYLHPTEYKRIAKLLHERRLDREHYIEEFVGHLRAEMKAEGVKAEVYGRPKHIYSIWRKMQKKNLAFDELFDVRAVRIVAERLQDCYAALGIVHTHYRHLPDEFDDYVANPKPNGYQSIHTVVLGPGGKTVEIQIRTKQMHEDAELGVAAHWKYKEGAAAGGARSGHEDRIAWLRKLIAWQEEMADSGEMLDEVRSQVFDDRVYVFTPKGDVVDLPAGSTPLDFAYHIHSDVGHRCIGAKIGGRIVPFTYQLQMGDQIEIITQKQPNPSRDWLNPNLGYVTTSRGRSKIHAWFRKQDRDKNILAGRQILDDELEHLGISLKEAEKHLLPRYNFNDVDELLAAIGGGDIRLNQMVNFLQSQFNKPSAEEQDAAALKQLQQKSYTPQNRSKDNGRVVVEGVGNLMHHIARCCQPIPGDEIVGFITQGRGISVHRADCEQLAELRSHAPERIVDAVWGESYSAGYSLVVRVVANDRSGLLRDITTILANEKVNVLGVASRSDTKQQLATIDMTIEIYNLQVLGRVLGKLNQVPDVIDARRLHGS

RelA [2] = biological target: T1, RelA; test: product of 3H-GDP conversion by purified RelA; added at […] it only mildly modulates activity; format: biochemical
RelA [3] = biological target: T1, RelA; test: 3H-GDP conversion to ppGpp by purified RelA with vacant 70S or starved ribosomal complexes, TLC; format: biochemical
RelA [4] = biological target: T1, RelA; test: 3H-ppGpp synthesis assay (TLC) with purified RelA, pppGpp titration (activation), RelA alone or with starved ribosomal complexes; format: biochemical
RelA (untagged native) = biological target: T2, RelA (untagged native) (Escherichia coli DH5alpha, UniProt P0AG20 1-744); test: EMSA; 70 nM RNA, up to 60x excess RelA; weak binding (KD above 3 uM) not excluded; HEPES:Polymix buffer, 5 mM Mg2+, pH 7.5, 37 C; conditions: protein: recombinant; tags: none; hairpin
T2 sequence: T1 sequence (P0AG20 1-744)

In the case of `Nc1nc2c(ncn2[C@@H]2O[C@H](COP(=O)(O)OP(=O)(O)OP(=O)(O)O)[C@@H](O)[C@H]2O)c(=O)[nH]1` [GTP], the “3H-GTP conversion to pppGpp by purified RelA with ribosomes, TLC” value (RelA [1]) is reported as 896 ± 29 pppGpp reactions per RelA per minute.

With `Nc1nc2c(ncn2[C@@H]2O[C@H](COP(=O)(O)OP(=O)(O)O)[C@@H](OP(=O)(O)OP(=O)(O)O)[C@H]2O)c(=O)[nH]1` [ppGpp] the “product of 3H-GDP conversion by purified RelA; added at 100 μM it only mildly mo” value (RelA [2]) was “When GTP is used as a substrate, ppGpp acts as a weak inhibitor”.

In the case of `Nc1nc2c(ncn2[C@@H]2O[C@H](COP(=O)(O)OP(=O)(O)O)[C@@H](O)[C@H]2O)c(=O)[nH]1` [GDP], the “3H-GDP conversion to ppGpp by purified RelA with vacant 70S or starved ribosomal” value (RelA [3]) is reported as 1077±62 ppGpp per RelA per minute.

Work on `Nc1nc2c(ncn2[C@@H]2O[C@H](COP(=O)(O)OP(=O)(O)OP(=O)(O)O)[C@@H](OP(=O)(O)OP(=O)(O)O)[C@H]2O)c(=O)[nH]1` [pppGpp] yielded an EC50 (RelA [4]) of 500 to 600 nM.

UCGGCAAGGGGGUCAUCCCGACUUACCAACCCGA (structured_RNA) [ASF RNA oligonucleotide (23S rRNA H38, 34 nt)]: no binding (RelA (untagged native)).
